Assay results reported in the supplement of paper PMC10307832.

Key:
Assay in all cases: relative viability (nuclei count vs DMSO), 5 days (fraction); higher = more cells survive
[1] = test system: NCI-H2023
Method in brief: (§1)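 Relative viability was taken as the ratio of nuclei in treated wells to nuclei in vehicle wells. Lung cancer cell lines in 1536-well plates received compounds by pin tool one day after seeding, either one drug alone or a fixed anchor-drug dose plus five library-drug doses (not always all listed) in √10 steps. Nuclei were counted on 4× images after 5 days of treatment, and values are medians of duplicate plates.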

[2] = test system: NCI-H520
Method in brief: as §1

[3] = test system: NCI-H2087
Method in brief: as §1

[4] = test system: LCLC-103H
Method in brief: as §1

[5] = test system: LU99A
Method in brief: as §1

[6] = test system: COR-L 105
Method in brief: as §1

[7] = test system: A-427
Method in brief: as §1

[8] = test system: NCI-H1437
Method in brief: as §1

[9] = test system: SK-LU-1
Method in brief: as §1

[10] = test system: ABC-1
Method in brief: as §1

[11] = test system: SW 900
Method in brief: as §1

[12] = test system: 201T
Method in brief: as §1

[13] = test system: NCI-H1666
Method in brief: as §1

[14] = test system: SW 1573
Method in brief: as §1

[15] = test system: COR-L23
Method in brief: as §1

[16] = test system: NCI-H2009
Method in brief: as §1

[17] = test system: RERF-LC-KJ
Method in brief: as §1

[18] = test system: PC-14
Method in brief: as §1

[19] = test system: EPLC-272H
Method in brief: as §1

[20] = test system: EMC-BAC-2
Method in brief: as §1

[21] = test system: NCI-H3122
Method in brief: as §1

[22] = test system: HCC-827
Method in brief: as §1

[23] = test system: HCC-44
Method in brief: as §1

[24] = test system: EKVX
Method in brief: as §1

In the case of `Nc1cccc2c1CN(C1CCC(=O)NC1=O)C2=O` (configuration not stated) [Lenalidomide] + Cc1cc(Nc2cc(N3CCN(C)CC3)nc(Sc3ccc(NC(=O)C4CC4)cc3)n2)n[nH]1 [Tozasertib] (partner 0.1 µM), the relative viability ([1]; first compound 0.253 µM) is reported as 0.445, the relative viability ([1]; first compound 0.8 µM) is reported as 0.403 and the relative viability ([1]; first compound 2.53 µM) is reported as 0.386. The relative viability ([1]; first compound 8 µM) was 0.519, the relative viability ([2]; first compound 0.253 µM) was 0.429 and the relative viability ([2]; first compound 0.8 µM) was 0.461. For the same compound, the relative viability ([2]; first compound 2.53 µM) was 0.468, the relative viability ([2]; first compound 8 µM) was 0.374 and the relative viability ([3]; first compound 0.253 µM) was 0.24. For the same compound, the relative viability ([3]; first compound 0.8 µM) was 0.226, the relative viability ([3]; first compound 2.53 µM) was 0.277 and the relative viability ([3]; first compound 8 µM) was 0.242. For the same compound, the relative viability ([4]; first compound 0.253 µM) was 0.47, the relative viability ([4]; first compound 0.8 µM) was 0.517 and the relative viability ([4]; first compound 2.53 µM) was 0.644. The relative viability ([4]; first compound 8 µM) was 0.566, the relative viability ([5]; first compound 0.253 µM) was 0.32 and the relative viability ([5]; first compound 0.8 µM) was 0.284. For the same compound, the relative viability ([5]; first compound 2.53 µM) was 0.29, the relative viability ([5]; first compound 8 µM) was 0.276 and the relative viability ([6]; first compound 0.253 µM) was 0.351. For the same compound, the relative viability ([6]; first compound 0.8 µM) was 0.31, the relative viability ([6]; first compound 2.53 µM) was 0.402 and the relative viability ([6]; first compound 8 µM) was 0.373. It also gave a relative viability ([7]; first compound 0.253 µM) of 0.197, a relative viability ([7]; first compound 0.8 µM) of 0.222 and a relative viability ([7]; first compound 2.53 µM) of 0.22. It also gave a relative viability ([7]; first compound 8 µM) of 0.216, a relative viability ([8]; first compound 0.253 µM) of 0.432 and a relative viability ([8]; first compound 0.8 µM) of 0.443. For the same compound, the relative viability ([8]; first compound 2.53 µM) was 0.441, the relative viability ([8]; first compound 8 µM) was 0.47 and the relative viability ([9]; first compound 0.253 µM) was 0.376. For the same compound, the relative viability ([9]; first compound 0.8 µM) was 0.304, the relative viability ([9]; first compound 2.53 µM) was 0.399 and the relative viability ([9]; first compound 8 µM) was 0.392. The relative viability ([10]; first compound 0.253 µM) was 0.199, the relative viability ([10]; first compound 0.8 µM) was 0.17 and the relative viability ([10]; first compound 2.53 µM) was 0.184. The relative viability ([10]; first compound 8 µM) was 0.175, the relative viability ([11]; first compound 0.253 µM) was 0.544 and the relative viability ([11]; first compound 2.53 µM) was 0.635. For the same compound, the relative viability ([11]; first compound 8 µM) was 0.616, the relative viability ([12]; first compound 0.253 µM) was 1.01 and the relative viability ([12]; first compound 2.53 µM) was 1.02. For the same compound, the relative viability ([12]; first compound 8 µM) was 1.02, the relative viability ([13]; first compound 0.253 µM) was 0.585 and the relative viability ([13]; first compound 2.53 µM) was 0.655. The relative viability ([13]; first compound 8 µM) was 0.653, the relative viability ([14]; first compound 0.253 µM) was 0.159 and the relative viability ([14]; first compound 0.8 µM) was 0.193. For the same compound, the relative viability ([14]; first compound 2.53 µM) was 0.276, the relative viability ([14]; first compound 8 µM) was 0.198 and the relative viability ([15]; first compound 0.253 µM) was 0.255. It also gave a relative viability ([15]; first compound 0.8 µM) of 0.238, a relative viability ([15]; first compound 2.53 µM) of 0.229 and a relative viability ([15]; first compound 8 µM) of 0.29. For the same compound, the relative viability ([16]; first compound 0.253 µM) was 0.776, the relative viability ([16]; first compound 0.8 µM) was 0.761 and the relative viability ([16]; first compound 2.53 µM) was 0.836. The relative viability ([16]; first compound 8 µM) was 0.847, the relative viability ([17]; first compound 0.253 µM) was 0.507 and the relative viability ([17]; first compound 0.8 µM) was 0.566. The relative viability ([17]; first compound 2.53 µM) was 0.515, the relative viability ([17]; first compound 8 µM) was 0.568 and the relative viability ([18]; first compound 0.253 µM) was 0.629. For the same compound, the relative viability ([18]; first compound 0.8 µM) was 0.696, the relative viability ([18]; first compound 2.53 µM) was 0.706 and the relative viability ([18]; first compound 8 µM) was 0.738. The relative viability ([19]; first compound 0.253 µM) was 0.343, the relative viability ([19]; first compound 0.8 µM) was 0.229 and the relative viability ([19]; first compound 2.53 µM) was 0.349. The relative viability ([19]; first compound 8 µM) was 0.256, the relative viability ([20]; first compound 0.253 µM) was 0.287 and the relative viability ([20]; first compound 0.8 µM) was 0.272. It also gave a relative viability ([20]; first compound 2.53 µM) of 0.298, a relative viability ([20]; first compound 8 µM) of 0.333 and a relative viability ([21]; first compound 0.253 µM) of 0.39. The relative viability ([21]; first compound 0.8 µM) was 0.416, the relative viability ([21]; first compound 2.53 µM) was 0.406 and the relative viability ([21]; first compound 8 µM) was 0.522. The relative viability ([22]; first compound 0.253 µM) was 0.47, the relative viability ([22]; first compound 0.8 µM) was 0.41 and the relative viability ([22]; first compound 2.53 µM) was 0.455. For the same compound, the relative viability ([22]; first compound 8 µM) was 0.462, the relative viability ([23]; first compound 0.253 µM) was 0.886 and the relative viability ([23]; first compound 2.53 µM) was 1.22. The relative viability ([23]; first compound 8 µM) was 1.12, the relative viability ([24]; first compound 0.253 µM) was 0.396 and the relative viability ([24]; first compound 0.8 µM) was 0.41. The relative viability ([24]; first compound 2.53 µM) was 0.415 and the relative viability ([24]; first compound 8 µM) was 0.372.
